Structures can show the parent of a compound that is named as a salt.
Assays:
human FSH receptor = target: T1, human FSH receptor (Homo sapiens, UniProt P23945); assay: Follicle-Stimulating Hormone Receptor-Dependent Cre-Luciferase Reporter Gene Assay (CHO FSH-R 6CRE-Luc cells); type: cell-based; details: for IC50: dose-response format, in presence of EC50 of purified human FSH
T1 construct: host or cells: CHO-K1 (CHO FSH-R 6CRE-Luc, 1D7 cells)
T1 sequence (P23945 18-695): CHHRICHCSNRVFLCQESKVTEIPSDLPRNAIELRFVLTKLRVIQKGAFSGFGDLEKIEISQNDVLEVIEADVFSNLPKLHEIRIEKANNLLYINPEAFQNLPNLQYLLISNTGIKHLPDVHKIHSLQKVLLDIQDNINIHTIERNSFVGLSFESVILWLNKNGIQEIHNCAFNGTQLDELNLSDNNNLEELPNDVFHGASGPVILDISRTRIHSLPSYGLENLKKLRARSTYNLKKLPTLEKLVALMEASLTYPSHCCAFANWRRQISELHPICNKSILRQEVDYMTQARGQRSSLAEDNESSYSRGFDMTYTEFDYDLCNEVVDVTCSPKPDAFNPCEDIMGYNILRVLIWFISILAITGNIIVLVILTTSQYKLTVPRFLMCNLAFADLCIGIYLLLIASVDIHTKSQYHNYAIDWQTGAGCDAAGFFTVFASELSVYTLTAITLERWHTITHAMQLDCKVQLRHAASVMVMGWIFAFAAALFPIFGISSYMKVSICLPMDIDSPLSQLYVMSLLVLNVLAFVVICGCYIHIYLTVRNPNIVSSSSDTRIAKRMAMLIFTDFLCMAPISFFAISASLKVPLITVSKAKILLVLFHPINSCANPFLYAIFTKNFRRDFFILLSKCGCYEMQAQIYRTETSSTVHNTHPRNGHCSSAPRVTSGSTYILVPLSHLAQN
Source text: Follicle-Stimulating Hormone Receptor-Dependent Cre-Luciferase Reporter Gene Assay for the Identification of Follicle-Stimulating Hormone (FSH) Antagonists
A Chinese hamster ovarian cell line that stably produces the human FSH receptor and a luciferase reporter gene regulated by cAMP response elements was used to identify and determine the relative potencies of human FSH receptor antagonists. See for example, Kelton, C. A., et al. Mol. Cell. Endocrinol. 89:141-151 (1992), Tilly, J. L., et al. Endocrinology 131:799-806(1992), and George, S. E., et al. J. Biomol. Screening 2:235-240 (1997).
Compound Vehicle: Stock compounds were solubilized in an appropriate vehicle, e.g., phosphate buffered saline (PBS) or dimethyl sulfoxide (DMSO), at 30 mM. The compounds were subsequently diluted in DMSO to working dilutions of 1 and 20 or 30 mM for 2-dose testing format and 1 μM-10 mM for dose-response format. The DMSO dilutions were diluted 500-fold in sterile growth medium [D-MEM/F-12 (GIBCO/BRL; Grand Island, NY) containing 15 mM HEPES, 2 mM 1-glutamine, pyridoxine hydrochloride, phenol red and 5% FetalClone® II (HyClone Laboratories, Inc; Logan, Utah), 0.2% DMSO, 100 units penicillin G/ml, and 100 μg streptomycin sulfate/ml (GIBCO/BRL)]. The concentration of the vehicle in each of the compound dilutions was the same.
Positive Controls: Purified human FSH (>98%) was purchased from Cortex Biochem, Inc. (San Leandro, Calif.) and 3-[(2S*,5R*)-5-{[2-(1H-Indol-3-yl)-ethylcarbamoyl]-methyl}-4-oxo-2-(5-phenylethynyl-thiophen-2-yl)-thiazolidin-3-yl]-benzamide (an FSH-R thiazolidinone antagonist) was prepared by processes described by R. A. Scheuerman et al. in U.S. Pat. No. 6,426,357 (Affymax).
The CHO FSH-R 6CRE-Luc cells (1D7 cells) were obtained from Affymax (Palo Alto, Calif.). These Chinese hamster ovary cells (CHO-K1) were engineered genetically to stably express the recombinant human FSH receptor gene and a luciferase reporter gene under the regulation of 6 copies of a cAMP response element. The cells were plated one day prior to treatment into 96-well white opaque plates at a density of 50,000 cells/100 μl/well in growth medium. On the day of treatment, the growth medium was removed from the wells by aspiration and 50 μl of fresh growth medium was added to each well. The cells were incubated at 37° C. in a humidified incubator with 5% CO2/95% air.
The treated cells were incubated for 4 hours at 37° C. in a humidified incubator with 5% CO2/95% air. At the end of the incubation period, luciferase activity was measured by chemiluminescence using a commercially available kit (LucScreen, Tropix, Inc., Bedford, Mass.) according to the manufacturer's specifications, except that Buffer 1 and Buffer 2 were mixed together in equal proportion prior to the addition of 100 μl of the combined reagents to each well. Chemiluminescence was detected using a luminometer (EG & G Berthold Microlumat LB 96 P, Wallac, Gaithersburg, Md.) with chemiluminescence measured for 1 sec/well. Background luminescence was measured for each well prior to the addition of the LucScreen reagent.
In the 96-well 2-dose format, each compound was tested in duplicate at each dose. […] One plate was used to test a maximum of 22 compounds.
The EC50 of purified human FSH alone was tested in triplicate with each test compound. The doses chosen to test each compound were extrapolated from the initial 2-dose screening process. Along with the test compounds, purified human FSH also was tested in a dose response (0.03, 0.1, 0.3, 1, 3, 10, and 30 ng/ml) for a positive control and quality control. One plate was used for 3 test compounds and the FSH positive control.
Luciferase activity is expressed as relative light units/sec/well. Luciferase activity in antagonist was compared to the appropriate negative and positive controls. For 2-dose testing, results are reported as luciferase activity and are expressed as percent inhibition of the response obtained from the EC50 of FSH.

[1] = 2-dose format, concentration in parentheses 30 μM, inhibition of the response to EC50 of FSH

SMILES	melting point [°C]	inhibition at 30 µM (human FSH receptor; [1]) [%]	IC50 (human FSH receptor) [µM]	CRE % inhibition (μM) (human FSH receptor; [1])
COc1ccccc1-c1ccc(C(=O)N2Cc3ccc(C(=O)NCc4c(Cl)cccc4Oc4ccccc4)n3Cc3ccccc32)cc1 [Example 3, N-(2-CHLORO-6-PHENOXYBENZYL)-10-[(2′-METHOXY-1,1′-BIPHENYL-4-YL)CARBONYL]-10,11-DIHYDRO-5H-PYRROLO[2,1-C][1,4]BENZODIAZEPINE-3-CARBOXAMIDE]	–	8	–	–
COc1ccccc1-c1ccc(C(=O)N2Cc3ccc(C(=O)N[C@@H](CO)c4ccccc4)n3Cc3ccccc32)cc1 [Example 4]	195 to 196	9	–	–
COc1ccccc1-c1ccc(C(=O)N2Cc3ccc(C(=O)N[C@H](CO)c4ccccc4)n3Cc3ccccc32)cc1 [Example 5]	196 to 197	14	–	–
Cc1ccccc1-c1ccc(C(=O)N2Cc3ccc(C(=O)NC(C)c4ccccc4)n3Cc3ccccc32)cc1C (centres unmarked) [Example 13]	118 to 124	–	8.2	–
Cc1ccccc1-c1ccc(C(=O)N2Cc3ccc(C(=O)NCc4ccc(OC(F)(F)F)cc4)n3Cc3ccccc32)cc1C [Example 19]	147 to 149	30	–	–
Cc1ccccc1-c1ccc(C(=O)N2Cc3ccc(C(=O)NCc4ccccc4C(F)(F)F)n3Cc3ccccc32)cc1C [Example 24]	126 to 128	–	> 30	–
Cc1ccccc1-c1ccc(C(=O)N2Cc3ccc(C(=O)NC(C)CCc4ccccc4)n3Cc3ccccc32)cc1C (centres unmarked) [Example 32]	152 to 154	–	~30	–
COc1ccc(CNC(=O)c2ccc3n2Cc2ccccc2N(C(=O)c2ccc(-c4ccccc4C)c(OC)c2)C3)cc1 [Example 36, N-(4-METHOXYBENZYL)-10-[(2-METHOXY-2′-METHYL-1,1′-BIPHENYL-4-YL)CARBONYL]-10,11-DIHYDRO-5H-PYRROLO[2,1-C][1,4]BENZODIAZEPINE-3-CARBOXAMIDE]	178 to 179	60	–	–
COc1cc(C(=O)N2Cc3ccc(C(=O)NCc4ccccc4C(F)(F)F)n3Cc3ccccc32)ccc1-c1ccccc1C [Example 39, 10-[(2-METHOXY-2′-METHYL-1,1′-BIPHENYL-4-YL)CARBONYL]-N-[2-(TRIFLUOROMETHYL)BENZYL]-10,11-DIHYDRO-5H-PYRROLO[2,1-C][1,4]BENZODIAZEPINE-3-CARBOXAMIDE]	165 to 167	–	> 30	–
COc1cc(C(=O)N2Cc3ccc(C(=O)NCc4ccccc4C)n3Cc3ccccc32)ccc1-c1ccccc1C [Example 41, 10-[(2-METHOXY-2′-METHYL-1,1′-BIPHENYL-4-YL)CARBONYL]-N-(2-METHYLBENZYL)-10,11-DIHYDRO-5H-PYRROLO[2,1-C][1,4]BENZODIAZEPINE-3-CARBOXAMIDE]	204	62	–	–
COc1cc(C(=O)N2Cc3ccc(C(=O)NCc4ccc(Cl)cc4)n3Cc3ccccc32)ccc1-c1ccccc1C [Example 43, N-(4-CHLOROBENZYL)-10-[(2-METHOXY-2′-METHYL-1,1′-BIPHENYL-4-YL)CARBONYL]-10,11-DIHYDRO-5H-PYRROLO[2,1-C][1,4]BENZODIAZEPINE-3-CARBOXAMIDE]	218 to 219	56	–	–
COc1cc(C(=O)N2Cc3ccc(C(=O)NCCc4cccc(Cl)c4)n3Cc3ccccc32)ccc1-c1ccccc1C [Example 51, N-[2-(3-CHLOROPHENYLETHYL]-10-[(2-METHOXY-2′-METHYL-1,1′-BIPHENYL-4-YL)CARBONYL]-10,11-DIHYDRO-5H-PYRROLO[2,1-C][1,4]BENZODIAZEPINE-3-CARBOXAMIDE]	–	–	> 30	–
Cc1ccccc1-c1ccc(C(=O)N2Cc3ccc(C(=O)NCCCCc4ccccc4)n3Cc3ccccc32)cc1C [Example 56]	129 to 131	–	–	–
Cc1cc(Cl)ccc1OCC(=O)N1Cc2ccc(C(=O)NCc3ccc4c(c3)OCO4)n2Cc2ccccc21 [Example 76]	–	–	–	15(30) %

Second part, led by results:

melting point [°C]	inhibition at 30 µM (human FSH receptor; [1]) [%]	IC50 (human FSH receptor) [µM]	SMILES	CRE % inhibition (μM) (human FSH receptor; [1])
154 to 157	–	–	Cc1ccccc1-c1ccc(C(=O)N2Cc3ccc(C(=O)NCCc4ccc5c(c4)OCO5)n3Cc3ccccc32)cc1C (as salt: hydrochloride) [Example 33]	–
–	37	–	Cc1ccccc1-c1ccc(C(=O)N2Cc3ccc(C(=O)NCc4ccc(O)cc4)n3Cc3ccccc32)cc1C [Example 9]	–
–	–	14.9	Cc1ccccc1-c1ccc(C(=O)N2Cc3ccc(C(=O)NCc4ccc(CN)cc4)n3Cc3ccccc32)cc1C [Example 11]	–
–	–	11.9	Cc1ccccc1-c1ccc(C(=O)N2Cc3ccc(C(=O)NCc4cccc(CN)c4)n3Cc3ccccc32)cc1C [Example 12]	–
183 to 184	59	–	Cc1ccccc1-c1ccc(C(=O)N2Cc3ccc(C(=O)NCCCc4ccccc4)n3Cc3ccccc32)cc1C [Example 25]	–
174 to 176	62	–	Cc1ccccc1-c1ccc(C(=O)N2Cc3ccc(C(=O)NCCc4cccc(Cl)c4)n3Cc3ccccc32)cc1C [Example 26]	–
169 to 171	52	–	Cc1ccccc1-c1ccc(C(=O)N2Cc3ccc(C(=O)NCCc4ccc(Cl)cc4)n3Cc3ccccc32)cc1C [Example 27]	–
130 to 136	–	> 30	COc1ccc(CCNC(=O)c2ccc3n2Cc2ccccc2N(C(=O)c2ccc(-c4ccccc4C)c(C)c2)C3)cc1OC [Example 28, N-[2-(3,4-DIMETHOXYPHENYL)ETHYL]-10-[(2,2′-DIMETHYL-1,1′-BIPHENYL-4-YL)CARBONYL]-10,11- DIHYDRO-5H-PYRROLO[2,1-C][1,4]BENZODIAZEPINE-3-CARBOXAMIDE]	–
161 to 163	52	–	Cc1ccc(CCNC(=O)c2ccc3n2Cc2ccccc2N(C(=O)c2ccc(-c4ccccc4C)c(C)c2)C3)cc1 [Example 29]	–
170 to 172	62	–	COc1ccc(CCNC(=O)c2ccc3n2Cc2ccccc2N(C(=O)c2ccc(-c4ccccc4C)c(C)c2)C3)cc1 [Example 30]	–
178 to 179	–	–	COc1cc(C(=O)N2Cc3ccc(C(=O)NCCc4ccc5c(c4)OCO5)n3Cc3ccccc32)ccc1-c1ccccc1C [Example 62, N-[2-(1,3-BENZODIOXOL-5-YL)ETHYL]-10-[(2-METHOXY-2′-METHYL-1,1′-BIPHENYL-4-YL)CARBONYL]-10,11-DIHYDRO-5H-PYRROLO[2,1-C][1,4]BENZODIAZEPINE-3-CARBOXAMIDE]	–
